Measurements: patent publication US11286268B1, “EIF4E-inhibiting compounds and methods” (EFFECTOR THERAPEUTICS, INC., priority 2019, dated 2022)
Where two headings read alike, the source gives them in different places.

Biological target: recombinant eIF4E (Homo sapiens (Human), UniProt P06730)
Assay: Fluorescence polarization competition assay for eIF4E binding potency
Protocol: Compounds were screened for eIF4E binding potency using a fluorescence polarization competition assay. All binding reactions were performed in fluorescence polarization buffer (FPB) containing 20 mM Tris pH 7.5, 100 mM NaCl, 1 mM DTT, and 0.02% Tween-20. Final binding reactions contained 75 nM recombinant eIF4E (Beryllium, custom order), 20 nM EDA-m^7GDP-ATTO-550 (Jena Bioscience, NU-827-550) and varying concentrations of the inhibitory compound of interest. Final DMSO concentration in each reaction was 1%.
eIF4E protein was pre-incubated with EDA-m^7GDP-ATTO-550 in FPB at 2× concentrations for 5 minutes prior to the addition of compounds. Compounds (100×) were prepared using 3-fold serial dilutions in 100% DMSO, and subsequently diluted 1:50 in FPB to produce 2× stocks. 50 μl of 2× eIF4E/EDA-m^7GDP-ATTO-550 were transferred to the wells of a 96-well half-area black flat bottom polystyrene plate. 50 μl of 2× test compound were added, and binding reactions were allowed to equilibrate for 30 minutes at room temperature while protected from light. The fluorescent polarization signal was detected using a Victor 2 multi-label counter (Perkin Elmer) and the concentration necessary to achieve inhibition of eIF4E/EDA-m^7GDP-ATTO-550 binding by 50% (IC50) was calculated using data from an 8-point compound dilution series.
In Table 4A, IC50 values of less than 0.05 μM are labelled as “+++”, from 1 to 0.05 μM are labelled as “++”, and greater than 1 μM are labelled as “+”. ND=not determined.

[1] = fluorescence polarization competition, 75 nM recombinant eIF4E, 20 nM EDA-m7GDP-ATTO-550, IC50 class, read-out: elF4E FP
[2] = inhibition of eIF4E/EDA-m7GDP-ATTO-550 binding by 50%, Table 4B calculated values, read-out: IC50

Chain of recombinant eIF4E (P06730 whole entry): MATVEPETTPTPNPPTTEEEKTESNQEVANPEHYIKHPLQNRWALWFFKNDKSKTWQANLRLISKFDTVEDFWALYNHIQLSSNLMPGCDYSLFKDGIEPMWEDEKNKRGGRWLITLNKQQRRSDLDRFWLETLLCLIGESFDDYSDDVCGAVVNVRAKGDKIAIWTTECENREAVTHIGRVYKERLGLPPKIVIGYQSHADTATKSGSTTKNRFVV

Row | SMILES | IC50 [1] [nM] | IC50 [2] [nM]
1 | Cc1nc2c(C(C)C)nc(N3CCN(CCF)CC3)c(C#N)c2c(=O)n1CCOc1ccc(Cl)cc1-c1ccnc2c(C(=O)O)csc12 [compound 183] | 50 to 1000 | 50.2
2 | N#Cc1cncc2ncn(CCOc3ccc(Cl)cc3-c3ccc(C(=O)O)c(CCCCC(O)CO)c3)c(=O)c12 (centres unmarked) [compound 184] | 50 to 1000 | 
3 | N#Cc1cc(C(F)(F)F)cc2nc(C#N)n(CCOc3ccc(Cl)cc3-c3cccc(C(=O)O)c3)c(=O)c12 [compound 185] | 50 to 1000 | 94.9
4 | N#Cc1cc(C(F)(F)F)cc2nc(O)n(CCOc3ccc(Cl)cc3-c3cccc(C(=O)O)c3)c(=O)c12 [compound 186] | 50 to 1000 | 344
5 | N#Cc1cc(C(F)(F)F)cc2nc(Cl)n(CCOc3ccc(Cl)cc3-c3cccc(C(=O)O)c3)c(=O)c12 [compound 187] | < 50 | 48.3
6 | N#Cc1c(C(F)F)ccc2nc(C(F)F)n(CCOc3ccc(Cl)cc3-c3ccnc4c(C(=O)O)csc34)c(=O)c12 [compound 188] | 50 to 1000 | 63.2
7 | N#Cc1cccc2nc(C(F)F)n(CCOc3ccc(Cl)cc3-c3nccc4c(C(=O)O)csc34)c(=O)c12 [compound 189] | > 1000 | 1570
8 | N#Cc1cccc2nc(C(F)F)n(CCOc3ccc(Cl)cc3-c3ccc(C(=O)O)c4cnsc34)c(=O)c12 [compound 190] | 50 to 1000 | 301
9 | N#Cc1cccc2nc(C(F)F)n(CCOc3ccc(Cl)cc3-c3ccc(C(=O)O)c4ccsc34)c(=O)c12 [compound 191] | 50 to 1000 | 144
10 | N#Cc1cccc2nc(C(F)F)n(CCOc3ccc(Cl)cc3-c3cncn(CC(=O)O)c3=S)c(=O)c12 [compound 192] | > 1000 | 1310
11 | Cc1nc2ccc(S(C)(=O)=O)c(C#N)c2c(=O)n1CCOc1ccc(Cl)cc1-c1ccnc2c(C(=O)O)csc12 [compound 195] | < 50 | 27.4
12 | Cc1nc2ccc(S(=O)(=O)N(C)C)c(C#N)c2c(=O)n1CCOc1ccc(Cl)cc1-c1ccnc2c(C(=O)O)csc12 [compound 196] | < 50 | 25.7
13 | Cc1nc2cc(C(F)(F)F)cc(C#N)c2c(=O)n1CCOc1ccc(Cl)cc1-c1ccnc2cc(C(=O)O)sc12 [compound 199] | 50 to 1000 | 143
14 | Cc1nc2cc(C(F)(F)F)cc(C#N)c2c(=O)n1CCOc1ccc(Cl)cc1-c1cc(C(=O)O)nc2ccsc12 [compound 201] | 50 to 1000 | 354
15 | Cc1nc2cc(C(F)(F)F)cc(C#N)c2c(=O)n1CCOc1ccc(Cl)cc1-c1ccnc2c(CC(=O)O)csc12 [compound 202] | < 50 | 47.4
16 | Cc1nc2cc(C(F)(F)F)cc(C#N)c2c(=O)n1CCOc1ccc(Cl)cc1-c1csc2c(C(=O)O)csc12 [compound 203] | 50 to 1000 | 80.6
17 | Cc1nc2c(-c3cncnc3)ccc(C#N)c2c(=O)n1CCOc1ccc(Cl)cc1-c1ccnc2c(C(=O)O)csc12 [compound 204] | < 50 | 44.4

Row | SMILES | IC50 [1] [nM] | IC50 [2] [nM]
18 | Cc1sc2c(-c3cc(Cl)ccc3OCCn3c(C)nc4cc(C(F)(F)F)cc(C#N)c4c3=O)ccnc2c1C(=O)O [compound 205] | 50 to 1000 | 101
19 | Cc1nc2cc(C(F)(F)F)cc(C#N)c2c(=O)n1CCOc1ccc(Cl)cc1-c1ncnc2c(C(=O)O)csc12 [compound 215] | 50 to 1000 | 
20 | Cc1c(Cl)c2cc(C(F)(F)F)cc(C#N)c2c(=O)n1CCOc1ccc(Cl)cc1-c1ccnc2c(C(=O)O)csc12 [compound 218] | < 50 | 16.9
21 | Cc1nc2cc(C(F)(F)F)cc(C(F)(F)F)c2c(=O)n1CCOc1ccc(Cl)cc1-c1ccnc2c(C(=O)O)csc12 [compound 219] | 50 to 1000 | 109
22 | Cc1nc2cc(C(F)(F)F)cc(C(F)F)c2c(=O)n1CCOc1ccc(Cl)cc1-c1ccnc2c(C(=O)O)csc12 [compound 220] | 50 to 1000 | 213
23 | Cc1nc2cc(C(F)(F)F)cc(S(C)(=O)=O)c2c(=O)n1CCOc1ccc(Cl)cc1-c1ccnc2c(C(=O)O)csc12 [compound 223] | 50 to 1000 | 950
24 | Cc1nc2cc(C(F)(F)F)cc(C#N)c2c(=O)n1CCOc1ccc(Cl)cc1-c1nccc2c(C(=O)O)csc12 [compound 225] | 50 to 1000 | 147
25 | Cc1nc2cc(C(F)(F)F)cc(C#N)c2c(=O)n1CCOc1ccc(Cl)cc1-c1ccc(C(=O)O)c2ncsc12 [compound 226] | 50 to 1000 | 70.7
26 | Cc1nc2cc(C(F)(F)F)cc(C#N)c2c(=O)n1CCOc1ccccc1-c1ccnc2c(C(=O)O)csc12 [compound 227] | 50 to 1000 | 507
27 | Cc1nc2c(S(C)(=O)=O)ccc(C#N)c2c(=O)n1CCOc1ccc(Cl)cc1-c1ccnc2c(C(=O)O)csc12 [compound 229] | < 50 | 22.2
28 | N#Cc1cc(C#N)c2c(=O)n(CCOc3ccc(Cl)cc3-c3cccc(C(=O)O)c3)c(CF)nc2c1 [compound 231] | < 50 | 12.9
29 | C#Cc1c(C(=O)O)cccc1-c1cc(Cl)ccc1OCCn1c(CF)nc2cc(C#N)cc(C#N)c2c1=O [compound 232] | < 50 | 16.3
30 | CS(=O)(=O)c1cc(C#N)c2c(=O)n(CCOc3ccc(Cl)cc3-c3cccc(C(=O)O)c3)c(CF)nc2c1 [compound 233] | < 50 | 28.9
31 | Cc1nc2ccc(OC(F)F)c(C#N)c2c(=O)n1CCOc1ccc(Cl)cc1-c1ccnc2c(C(=O)O)csc12 [compound 236] | < 50 | 20.3
32 | Cc1nc2c(S(=O)(=O)N(C)C)ccc(C#N)c2c(=O)n1CCOc1ccc(Cl)cc1-c1ccnc2c(C(=O)O)csc12 [compound 237] | 50 to 1000 | 54.8
33 | CNS(=O)(=O)c1ccc(C#N)c2c(=O)n(CCOc3ccc(Cl)cc3-c3ccnc4c(C(=O)O)csc34)c(C)nc12 [compound 238] | < 50 | 38

Other lines, results leading:

Row | IC50 [1] [nM] | IC50 [2] [nM] | SMILES
34 | < 50 | 35.8 | Cc1nc2cc(S(C)(=O)=O)cc(C#N)c2c(=O)n1CCOc1ccc(Cl)cc1-c1ccnc2c(C(=O)O)csc12 [compound 194]
35 | 50 to 1000 | 52.4 | Cc1nc2c(C#N)cc(C(F)F)c(C#N)c2c(=O)n1CCOc1ccc(Cl)cc1-c1ccnc2c(C(=O)O)csc12 [compound 197]
36 | 50 to 1000 | 124 | Cc1nc2cc(C(F)(F)F)cc(Cl)c2c(=O)n1CCOc1ccc(Cl)cc1-c1ccnc2c(C(=O)O)csc12 [compound 198]
37 | < 50 | 43.5 | Cc1nc2cc(Cl)cc(C#N)c2c(=O)n1CCOc1ccc(Cl)cc1-c1ccnc2c(C(=O)O)csc12 [compound 200]
38 | < 50 | 21.3 | Cc1nc2cc(Cl)c(Cl)c(C#N)c2c(=O)n1CCOc1ccc(Cl)cc1-c1ccnc2c(C(=O)O)csc12 [compound 207]
39 | 50 to 1000 | 103 | Cc1nc2cc(Cl)c(Cl)c(Cl)c2c(=O)n1CCOc1ccc(Cl)cc1-c1ccnc2c(C(=O)O)csc12 [compound 208]
40 | < 50 | 47 | Cc1nc2c(Cl)cc(Cl)c(C#N)c2c(=O)n1CCOc1ccc(Cl)cc1-c1ccnc2c(C(=O)O)csc12 [compound 209]
41 | 50 to 1000 | 91 | Cc1nc2c(C#N)c(C(F)(F)F)cc(C#N)c2c(=O)n1CCOc1ccc(Cl)cc1-c1ccnc2c(C(=O)O)csc12 [compound 210]
42 | < 50 | 35.4 | C#Cc1ccc(C#N)c2c(=O)n(CCOc3ccc(Cl)cc3-c3ccnc4c(C(=O)O)csc34)c(C)nc12 [compound 211]
43 | < 50 | 40 | Cc1nc2cc(C#N)cc(C#N)c2c(=O)n1CCOc1ccc(Cl)cc1-c1ccnc2c(C(=O)O)csc12 [compound 212]
44 | < 50 | 35.6 | C#Cc1cc(C#N)c2c(=O)n(CCOc3ccc(Cl)cc3-c3ccnc4c(C(=O)O)csc34)c(C)nc2c1 [compound 213]
45 | 50 to 1000 | 62.8 | Cc1nc2cc(C(F)(F)c3ccncc3)cc(C#N)c2c(=O)n1CCOc1ccc(Cl)cc1-c1ccnc2c(C(=O)O)csc12 [compound 216]
46 | 50 to 1000 | 55.4 | Cc1nc2cc(C(C)(F)F)cc(C#N)c2c(=O)n1CCOc1ccc(Cl)cc1-c1ccnc2c(C(=O)O)csc12 [compound 217]
47 | 50 to 1000 | 113 | Cc1nc2cc(C(F)(F)F)cc(S)c2c(=O)n1CCOc1ccc(Cl)cc1-c1ccnc2c(C(=O)O)csc12 [compound 221]
48 | < 50 | 23.5 | Cc1nc2ccc(C#N)c(C#N)c2c(=O)n1CCOc1ccc(Cl)cc1-c1ccnc2c(C(=O)O)csc12 [compound 228]
49 | < 50 | 14.9 | Cc1nc2cc(F)c(C(F)F)c(C#N)c2c(=O)n1CCOc1ccc(Cl)cc1-c1ccnc2c(C(=O)O)csc12 [compound 230]
50 | < 50 | 28.6 | Cc1nc2cc(C#N)c(Cl)c(C#N)c2c(=O)n1CCOc1ccc(Cl)cc1-c1ccnc2c(C(=O)O)csc12 [compound 239]
